Reference: patent US4001237A, “Oxazole, isoxazole, thiazole and isothiazole amides” (priority 1976, dated 1977)
Structures can show the parent of a compound that is named as a salt. Where two headings read alike, the source gives them in different places.

What was measured:
[1] = system: spontaneous hypertensive rats; experiment: Antihypertensive activity by oral administration to spontaneous hypertensive rats; type: in vivo, rat; conditions: for change in vivo at 1 mg/kg / change in vivo at 3 mg/kg / change in vivo at 10 mg/kg: Rattus norvegicus, read-out: Antihypertensive Activity % Blood Pressure Change
Protocol: (§1) In the following table, antihypertensive acitvity was determined by oral administration to spontaneous hypertensive rats, and the in vitro and in vivo α-adrenergic receptor blocking effect was determined by tests described following the table. In the in vitro test, the inhibition by the test drug of norepinephrine induced contractions of rat seminal vesicles was measured; and in the in vivo test, the inhibition by the test drug of norepinephrine induced pressor responses in anesthetized dogs was measured.

α-adrenergic receptor [2] = target: T1, α-adrenergic receptor (Rattus norvegicus, UniProt P43140); experiment: Isolated rat seminal vesicle assay: inhibition of norepinephrine induced contractions; type: cell-based; conditions: relative to prazosin; test compound 10 nanograms/ml; shift of norepinephrine ED50, rat seminal vesicle
T1 construct: Seminal vesicles were removed and transfered to a shallow dish containing modified Tyrode's solution; from tissue; host or cells: isolated seminal vesicle of male Long Evans rats
T1 sequence (P43140 1-466): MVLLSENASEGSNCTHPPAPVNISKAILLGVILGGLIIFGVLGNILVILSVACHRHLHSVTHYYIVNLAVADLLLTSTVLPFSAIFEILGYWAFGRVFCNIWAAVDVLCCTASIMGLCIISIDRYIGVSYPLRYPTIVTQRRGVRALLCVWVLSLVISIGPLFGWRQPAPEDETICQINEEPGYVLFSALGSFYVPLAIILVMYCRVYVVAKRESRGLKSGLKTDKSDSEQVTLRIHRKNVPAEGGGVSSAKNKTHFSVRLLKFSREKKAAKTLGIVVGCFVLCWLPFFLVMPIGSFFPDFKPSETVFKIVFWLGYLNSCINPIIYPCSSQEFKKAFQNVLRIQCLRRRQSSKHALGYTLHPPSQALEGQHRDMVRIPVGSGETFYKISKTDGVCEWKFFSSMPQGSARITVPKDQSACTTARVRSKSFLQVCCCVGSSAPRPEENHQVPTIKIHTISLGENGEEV
Protocol: as §1
Dangan et al., Int. j. […] Lietch et al., Brit.
Male Long Evans rats weighing approximately 300 g. were sacrificed by a sharp blow on the head. Seminal vesicles were removed and transfered to a shallow dish containing modified Tyrode's solution. The vesicles were emptied of their contents by squeezing them gently with a pair of forceps. Silk thread (4-0) was attached to both ends of the vesicle and it was suspended in a 20 ml. muscle chamber containing modified oxygenated Tyrode's solution (g./liter: NaCl 8, KCl 0.2, CaCl2 0.26, NaHCO3 1, Na2 HPO4 0.575, glucose 0.5 and MgCl2 0.02). The bathing fluid was maintained at 37° C. with a thermostatically controlled isolated organ tissue bath. Contractions were recorded isometrically by means of a force displacement transducer and recordings were made with a Beckman RP Dynograph. Norepinephrine (NE) was added to the muscle chamber in volumes ranging from 0.1 to 0.4 ml. with a 1 ml. syringe attached to a 3 inch 20 gauge needle. NE and test compounds were dissolved in deionized water.
NE dose response curves were obtained alone and in the presence of test compounds. NE was allowed to remain in contact with the strip until a maximal contraction was obtained. The strip was then washed with the perfusion fluid for 15-30 seconds and the preparation was allowed to return to base line before a subsequent dose of NE was given. Increasing amounts of NE were injected into the bath in the same manner until a complete dose response was obtained.
The seminal vesicles used to obtain the control NE dose response were discarded and new preparations were placed in the tissue bath for evaluation of the test compound. The test compound was added directly to the perfusion fluid (10 nanograms/ml.) and the strips were allowed to remain in contact with the bathing media for at least 10 minutes before the NE dose response was determined. Seminal vesicles from the same rat were used for control and for test drug.
ED50 values for NE were obtained by regression analysis as described by Finney, Probit, Analysis, 2d Ed., Cambridge (1964). A minimum of 4 strips and at least 4 doses were employed to calculate the regression lines. The ED50 value is defined as the concentration of NE which produces a contraction equal to 50% of the maximal contraction.

α-adrenergic receptor [3] = experiment: Anesthetized dog assay for α-adrenergic blocking agents: inhibition of norepinephrine induced pressor responses; type: in vivo; conditions: relative to prazosin; test drug 3 mg./kg. iv; norepinephrine dose raising blood pressure by 50 mm. of Hg; anesthetized dogs
Protocol: as §1
Thus, blood pressure responses to norepinephrine (NE) in anesthetized dogs was used as a comparative assay for α-adrenergic receptor blocking properties of drugs.
Experiments were done on mongrel dogs anesthetized with sodium pentobarbital, 30 mg./kg. iv. The left femoral artery was cannulated to record aortic blood pressure and a femoral vein was cannulated for administration of drugs. All animals underwent a bilateral vagotomy. A norepinephrine dose-response curve was obtained by administering increasing doses of iv norepinephrine (0.01 - 1 μg./kg.). The test drug was then administered iv at 3 mg./kg. Approximately 30 minutes later a dose-response curve was again established for iv norepinephrine (0.01-10 μg./kg.).

[4] = dose 1 mg/kg, oral, spontaneous hypertensive rats
[5] = dose 3 mg/kg, oral, spontaneous hypertensive rats
[6] = dose 10 mg/kg, oral, spontaneous hypertensive rats
[7] = oral, spontaneous hypertensive rats

Compound | change in vivo at 1 mg/kg [1, 4] | change in vivo at 3 mg/kg [1, 5] | change in vivo at 10 mg/kg [1, 6] | α-Adrenergic Receptor Blocking Effect In Vitro Activity Ratio (α-adrenergic receptor [2]) | α-Adrenergic Receptor Blocking Effect In Vivo Activity Ratio (α-adrenergic receptor [3]) | "plateauing" dose response effect on blood pressure lowering [1, 7] | change in vivo at 1 mg/kg ([1]; po) | change in vivo at 3 mg/kg ([1]; po) | change in vivo at 10 mg/kg ([1]; po)
COc1cc2nc(N3CCN(C(=O)c4ccno4)CC3)nc(N)c2cc1OC [Example 1, 4-Amino-6,7-dimethyoxy-2-[4-(isoxazole-5-carbonyl)-piperazine-1-yl]quinazoline Hydrochloride] | -15% | -26% | -35% | 0.11 | 0.18 |  |  |  | 
COc1cc2nc(N3CCN(C(=O)c4ccon4)CC3)nc(N)c2cc1OC [Example 2, 4-Amino-6,7-dimethoxy-2-[4-(isoxazole-3-carbonyl)-piperazin-1-yl]quinazoline Hydrochloride] | -12% | -26% | -32% |  |  |  |  |  | 
COc1cc2nc(N3CCN(C(=O)c4cnoc4)CC3)nc(N)c2cc1OC.Cl [Example 3, 4-Amino-6,7-dimethoxy-2-[4-(isoxazole-4-carbonyl)-piperazin-1-yl]quinazoline Hydrochloride] | -13% | -23% | -35% | 0.92 |  |  |  |  | 
COc1cc2nc(N3CCN(C(=O)c4cc(C)on4)CC3)nc(N)c2cc1OC.Cl [Example 4, 4-Amino-6,7-dimethoxy-2-[4-(5-methylisoxazole-3-carbonyl)piperazin-1-yl]quinazoline Hydrochloride] | -14% | -18% | -41% |  | 0.24 |  |  |  | 
COc1cc2nc(N3CCN(C(=O)c4conc4C)CC3)nc(N)c2cc1OC.Cl [Example 5, 4-Amino-6,7-dimethoxy-2-[4-(3-methylisoxazole-4-carbonyl)piperazin-1-yl]quinazoline Hydrochloride] | -17% | -29% | -33% | 0.30 | 0.18 |  |  |  | 
COc1cc2nc(N3CCN(C(=O)c4cc(C)no4)CC3)nc(N)c2cc1OC.Cl [Example 6, 4-Amino-6,7-dimethoxy-2-[4-(3-methylisoxazole-5-carbonyl)piperazin-1-yl]quinazoline Hydrochloride] | -18% | -21% | -37% | 0.25 |  |  |  |  | 
COc1cc2nc(N3CCN(C(=O)c4cocn4)CC3)nc(N)c2cc1OC.Cl [Example 7, 4-Amino-6,7-dimethoxy-2-[4-(oxazole-4-carbonyl)piperazin-1-yl]quinazoline Hydrochloride] | -15% | -29% | -45% | 0.6 | 1.22 |  |  |  | 
COc1cc2nc(N3CCN(C(=O)c4coc(C)n4)CC3)nc(N)c2cc1OC.Cl [Example 8, 4-Amino-6,7-dimethoxy-2-[4-(2-methyloxazole-4-carbonyl)piperazin-1-yl]quinazoline Hydrochloride] | -13% | -31% | -35% | 0.17 |  |  |  |  | 
COc1cc2nc(N3CCN(C(=O)c4ocnc4C)CC3)nc(N)c2cc1OC.Cl [Example 9, 4-Amino-6,7-dimethoxy-2-[4-(4-methyloxazole-5-carbonyl)piperazin-1-yl]quinazoline Hydrochloride] | -14% | -26% | -41% | 0.19 |  |  |  |  | 
COc1cc2nc(N3CCN(C(=O)c4cnsc4)CC3)nc(N)c2cc1OC.Cl [Example 10, 4-Amino-6,7-dimethoxy-2-[4-(isothiazole-4-carbonyl)piperazin-1-yl)quinazoline Hydrochloride] | -14% | -23% | -25% |  |  | maximum blood pressure lowering effect is seen at 3 mg./kg. which could not be increased at higher doses |  |  | 
COc1cc2nc(N3CCN(C(=O)c4nccs4)CC3)nc(N)c2cc1OC [Example 11, 4-Amino-6,7-dimethoxy-2-[4-thiazole-2-carbonyl)piperazin-1-yl]quinazoline Hydrochloride] | -14% | -27% | -33% |  |  |  |  |  | 
COc1cc2nc(N3CCN(C(=O)c4cscn4)CC3)nc(N)c2cc1OC [Example 12] | -20% | -24% | -32% | 0.12 |  |  |  |  | 
COc1cc2nc(N3CCN(C(=O)c4csc(C)n4)CC3)nc(N)c2cc1OC [Example 13, 4-Amino-6,7-dimethyoxy-2-[4-(2-methylthiazole-4-carbonyl)piperazin-1-yl]quinazoline Hydrochloride] | -19% | -28% | -28% | 0.02 |  | maximum blood pressure lowering effect is seen at 3 mg./kg. which could not be increased at higher doses |  |  | 
COc1cc2nc(N3CCN(C(=O)c4cncs4)CC3)nc(N)c2cc1OC.Cl [Example 14, 4-Amino-6,7-dimethoxy-2-[4-(thiazole-5-carbonyl)piperazin-1-yl]quinazoline Hydrochloride] | -12% | -22% | -33% | 0.10 |  |  |  |  | 
COc1cc2nc(N3CCN(C(=O)c4cnc(C)s4)CC3)nc(N)c2cc1OC [Example 15, 4-Amino-6,7-dimethyoxy-2-[4-(2-methylthiazole-5-carbonyl)piperazin-1-yl]quinazoline Hydrochloride] | -20% | -25% | -37% | 0.19 | 0.09 |  |  |  | 
COc1cc2nc(N3CCN(C(=O)c4scnc4C)CC3)nc(N)c2cc1OC.Cl [Example 16, 4-Amino-6,7-dimethoxy-2-[4-(4-methylthiazole-5-carbonyl)piperazin-1-yl]quinazoline Hydrochloride] | -4% | -22% | -28% | 0.35 |  |  |  |  | 
COc1cc2nc(N3CCN(C(=O)c4ccco4)CC3)nc(N)c2cc1OC [Prazosin, 2-[4-(2-furoyl)-piperazin-1-yl]-4-amino-6,7-dimethoxyquinazoline, reference compound] |  |  |  |  |  |  | -14% | -29% | -42%
